# Test results as given in US9624182B2, “Compounds as lysophosphatidic acid receptor antagonists” (Amira Pharmaceuticals, Inc., priority 2009, dated 2017).
# Target: T1, human LPA1 (Homo sapiens, UniProt Q92633)
# T1 construct: the full-length cDNA for human LPA1 was obtained by PCR of the reverse transcription reaction; expressed in transfected cells
# Test: LPA1 calcium flux assay
# Type: cell-based
# Settings: CHO cells expressing human LPA1, stimulated with 10 nM LPA; read-out: HLPA1 Ca Flux IC50
# Summary of the method: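 CHO cells stably expressing cloned human LPA1, serum-starved overnight, loaded with Calcium 4 dye 1 h at 37 °C in HBSS/20 mM Hepes with 0.3% fatty-acid-free HSA. Compounds preincubated 30 min at room temperature, then cells stimulated with 10 nM LPA; intracellular Ca2+ read by fluorescence. IC50 from titration curves.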
# T1 sequence (Q92633 whole entry): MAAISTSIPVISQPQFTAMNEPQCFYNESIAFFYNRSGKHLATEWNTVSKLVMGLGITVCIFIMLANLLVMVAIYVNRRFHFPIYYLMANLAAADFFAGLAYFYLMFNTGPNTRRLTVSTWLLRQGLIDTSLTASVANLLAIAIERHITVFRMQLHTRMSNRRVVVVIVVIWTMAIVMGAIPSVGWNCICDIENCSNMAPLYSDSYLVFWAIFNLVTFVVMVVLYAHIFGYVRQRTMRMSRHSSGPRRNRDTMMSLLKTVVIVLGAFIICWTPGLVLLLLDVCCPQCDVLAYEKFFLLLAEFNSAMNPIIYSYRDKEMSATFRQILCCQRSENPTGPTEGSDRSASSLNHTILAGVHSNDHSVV
row,SMILES,IC50 [µM]
1,"Cc1noc(-c2ccc(-c3ccc(C4(C(=O)O)CC4)cc3)cc2)c1Nc1ccccn1 [Compound 1-296, 1-{4′-[3-Methyl-4-(pyridin-2-ylamino)-isoxazol-5-yl]-biphenyl-4-yl}-cyclopropanecarboxylic acid]",> 50
2,"Cc1noc(-c2ccc(-c3ccc(C4(C(=O)O)CC4)cc3)cc2)c1Nc1cccc(OC(C)C)n1 [Compound 1-297, 1-{4′-[4-(6-Isopropoxy-pyridin-2-ylamino)-3-methyl-isoxazol-5-yl]-biphenyl-4-yl}-cyclopropanecarboxylic acid]",< 0.3
3,"Cc1noc(-c2ccc(-c3ccc(C4(C(=O)O)CC4)cc3)cc2)c1Nc1cccc(C(=O)O)n1 [Compound 1-298, 6-{5-[4′-(1-Carboxy-cyclopropyl)-biphenyl-4-yl]-3-methyl-isoxazol-4-ylamino}-pyridine-2-carboxylic acid]",1 to 50
4,"Cc1noc(-c2ccc(-c3ccc(C4(C(=O)O)CC4)cc3)cc2)c1Nc1cccc(C(=O)NCCN(C)C)n1 [Compound 1-299, 1-(4′-{4-[6-(2-Dimethylamino-ethylcarbamoyl)-pyridin-2-ylamino]-3-methyl-isoxazol-5-yl}-biphenyl-4-yl)-cyclopropanecarboxylic acid]",1 to 50
5,"Cc1noc(-c2ccc(-c3ccc(C4(C(=O)O)CC4)cc3)cc2)c1Nc1cccc(C(=O)NCC(C)(C)C)n1 [Compound 1-300, 1-(4′-{4-[6-(2,2-Dimethyl-propylcarbamoyl)-pyridin-2-ylamino]-3-methyl-isoxazol-5-yl}-biphenyl-4-yl)-cyclopropanecarboxylic acid]",< 0.3
6,"Cc1noc(-c2ccc(-c3ccc(C4(C(=O)O)CC4)cc3)cc2)c1Nc1cccc(OC(C)(C)C)n1 [Compound 1-301, 1-{4′-[4-(6-tert-Butoxy-pyridin-2-ylamino)-3-methyl-isoxazol-5-yl]-biphenyl-4-yl}-cyclopropanecarboxylic acid]",< 0.3
7,"Cc1noc(-c2ccc(-c3ccc(C4(C(=O)O)CC4)cc3)cc2)c1Nc1cccc(O)n1 [Compound 1-302, 1-{4′-[4-(6-Hydroxy-pyridin-2-ylamino)-3-methyl-isoxazol-5-yl]-biphenyl-4-yl}-cyclopropanecarboxylic acid]",1 to 50
8,"CCCCCCCCCCCCOc1cccc(Nc2c(C)noc2-c2ccc(-c3ccc(C4(C(=O)O)CC4)cc3)cc2)n1 [Compound 1-303, 1-{4′-[4-(6-Dodecyloxy-pyridin-2-ylamino)-3-methyl-isoxazol-5-yl]-biphenyl-4-yl}-cyclopropanecarboxylic acid]",1 to 50
9,"COc1cccc(Nc2c(C)noc2-c2ccc(-c3ccc(C4(C(=O)O)CC4)cc3)cc2)n1 [Compound 1-304, 1-{4′-[4-(6-Methoxy-pyridin-2-ylamino)-3-methyl-isoxazol-5-yl]-biphenyl-4-yl}-cyclopropanecarboxylic acid]",< 0.3
10,"Cc1noc(-c2ccc(-c3cccc(C(=O)O)c3)cc2)c1CNC(=O)OCc1ccccc1 [Compound 1-305, 4′-[4-(Benzyloxycarbonylamino-methyl)-3-methyl-isoxazol-5-yl]-biphenyl-3-carboxylic acid]",1 to 50
11,"Cc1onc(-c2ccc(-c3ccc(C4(CC(=O)O)CC4)cc3)cc2)c1CSCCc1ccccc1 [Compound 1-306, {1-[4′-(5-Methyl-4-phenethylsulfanylmethyl-isoxazol-3-yl)-biphenyl-4-yl]-cyclopropyl}-acetic acid]",< 0.3
12,"Cc1noc(-c2ccc(-c3ccc(C#CC(=O)O)cc3)cc2)c1N[C@@H](C)CCc1cccc(C(F)(F)F)c1 [Compound 1-307, (4′-{3-Methyl-4-[(S)-1-methyl-3-(3-trifluoromethyl-phenyl)-propylamino]-isoxazol-5-yl}-biphenyl-4-yl)-propynoic acid]",0.3 to 1
13,"Cc1noc(-c2ccc(-c3ccc(C4(C(=O)O)CC4)cc3)cc2)c1NC(=O)Nc1cccc(Br)c1 [Compound 1-308, 1-(4′-{4-[3-(3-Bromo-phenyl)-ureido]-3-methyl-isoxazol-5-yl}-biphenyl-4-yl)-cyclopropanecarboxylic acid]",< 0.3
14,"Cc1noc(-c2ccc(-c3ccc(C4(C(=O)O)CC4)cc3)cc2)c1Nc1cccc(OC(C)C)[n+]1[O-] [Compound 1-309, 1-{4′-[4-(6-Isopropoxy-1-oxy-pyridin-2-ylamino)-3-methyl-isoxazol-5-yl]-biphenyl-4-yl}-cyclopropanecarboxylic acid]",1 to 50
15,"Cc1noc(-c2ccc(-c3ccc(C4(C(=O)O)CC4)cc3)cc2)c1Nc1cncc(OC(C)C)c1 [Compound 1-310, 1-{4′-[4-(5-Isopropoxy-pyridin-3-ylamino)-3-methyl-isoxazol-5-yl]-biphenyl-4-yl}-cyclopropanecarboxylic acid]",< 0.3
16,"CC(=O)c1cccc(Nc2c(C)noc2-c2ccc(-c3ccc(C4(C(=O)O)CC4)cc3)cc2)n1 [Compound 1-311, 1-{4′-[4-(6-Acetyl-pyridin-2-ylamino)-3-methyl-isoxazol-5-yl]-biphenyl-4-yl}-cyclopropanecarboxylic acid]",< 0.3
17,"Cc1noc(-c2ccc(-c3ccc(C4(C(=O)O)CC4)cc3)cc2)c1Nc1cccc(C(N)=O)n1 [Compound 1-312, 1-{4′-[4-(6-Carbamoyl-pyridin-2-ylamino)-3-methyl-isoxazol-5-yl]-biphenyl-4-yl}-cyclopropanecarboxylic acid]",< 0.3
18,"Cc1noc(-c2ccc(-c3ccc(C4(C(=O)O)CC4)cc3)cc2)c1Nc1cccc(Br)n1 [Compound 1-313, 1-{4′-[4-(6-Bromo-pyridin-2-ylamino)-3-methyl-isoxazol-5-yl]-biphenyl-4-yl}-cyclopropanecarboxylic acid]",< 0.3
19,"Cc1noc(-c2ccc(-c3ccc(C4(C(=O)NS(C)(=O)=O)CC4)cc3)cc2)c1[C@@H](COCc1ccccc1)OC(=O)NS(C)(=O)=O [Compound 2-4, N-Sulfonylmethyl carbamic acid (S)-2-benzyloxy-1-{5-[4′-(1-methanesulfonylaminocarbonyl-cyclopropyl)-biphenyl-4-yl]-3-methyl-isoxazol-4-yl}-ethyl ester]",< 0.3
20,"Cc1ccc(S(=O)(=O)NC(=O)Nc2c(C)noc2-c2ccc(-c3ccc(C4(C(=O)NS(=O)(=O)c5ccc(C)cc5)CC4)cc3)cc2)cc1 [Compound 2-5, 4-Methyl-N-(1-{4′-[3-methyl-4-(3-p-tolunesulfonyl-ureido)-isoxazol-5-yl]-biphenyl-4-yl}-cyclopropanecarbonyl)-benzenesulfonamide]",> 50
21,"Cc1noc(-c2ccc(-c3ccc(C4(C(=O)NS(=O)(=O)C5CC5)CC4)cc3)cc2)c1NC(=O)NS(=O)(=O)C1CC1 [Compound 2-6, Cyclopropanesulfonic acid (1-{4′-[4-(3-cyclopropylsulfonyl-ureido)-3-methyl-isoxazol-5-yl]-biphenyl-4-yl}-cyclopropanecarbonyl)-amide]",1 to 50
22,"Cc1cccc(SCC(O)c2c(C)noc2-c2ccc(-c3ccc(C4(C(=O)NS(C)(=O)=O)CC4)cc3)cc2)c1 (stereo not shown) [Compound 2-13, N-(1-{4′-[4-(1-Hydroxy-2-m-tolylsulfanyl-ethyl)-3-methyl-isoxazol-5-yl]-biphenyl-4-yl}-cyclopropanecarbonyl)-methanesulfonamide]",< 0.3
